The target in the assay is High affinity nerve growth factor receptor (Homo sapiens, UniProt P04629). As to the kind of experiment: Biological Assay: TrkA functional activity was measured using a DiscoverX PathHunter assay. In this assay, U2OS cells express the human TrkA receptor as a fusion with the weakly complementing fragment of B-galactosidase, which DiscoverX calls Prolink (PK); additionally, Shc1 is fused with a larger fragment, which is called Enzyme Acceptor (EA). Activation of the TrkA receptor, upon NGF addition, results in the kinase domain being phosphorylated, resulting in subsequent recruitment of Shc1-EA protein. That recruitment results in an active B-galactosidase enzyme that is detected by addition of a chemiluminescent substrate. The human p75NTR protein was also expressed as a co-receptor for NGF.

IC50 data for one molecule are collected here from ChEMBL document CHEMBL5727531, “TrkA kinase inhibitors, compositions and methods thereof” (2020).

High affinity nerve growth factor receptor, sequence (P04629 whole entry, the tested form may be a part): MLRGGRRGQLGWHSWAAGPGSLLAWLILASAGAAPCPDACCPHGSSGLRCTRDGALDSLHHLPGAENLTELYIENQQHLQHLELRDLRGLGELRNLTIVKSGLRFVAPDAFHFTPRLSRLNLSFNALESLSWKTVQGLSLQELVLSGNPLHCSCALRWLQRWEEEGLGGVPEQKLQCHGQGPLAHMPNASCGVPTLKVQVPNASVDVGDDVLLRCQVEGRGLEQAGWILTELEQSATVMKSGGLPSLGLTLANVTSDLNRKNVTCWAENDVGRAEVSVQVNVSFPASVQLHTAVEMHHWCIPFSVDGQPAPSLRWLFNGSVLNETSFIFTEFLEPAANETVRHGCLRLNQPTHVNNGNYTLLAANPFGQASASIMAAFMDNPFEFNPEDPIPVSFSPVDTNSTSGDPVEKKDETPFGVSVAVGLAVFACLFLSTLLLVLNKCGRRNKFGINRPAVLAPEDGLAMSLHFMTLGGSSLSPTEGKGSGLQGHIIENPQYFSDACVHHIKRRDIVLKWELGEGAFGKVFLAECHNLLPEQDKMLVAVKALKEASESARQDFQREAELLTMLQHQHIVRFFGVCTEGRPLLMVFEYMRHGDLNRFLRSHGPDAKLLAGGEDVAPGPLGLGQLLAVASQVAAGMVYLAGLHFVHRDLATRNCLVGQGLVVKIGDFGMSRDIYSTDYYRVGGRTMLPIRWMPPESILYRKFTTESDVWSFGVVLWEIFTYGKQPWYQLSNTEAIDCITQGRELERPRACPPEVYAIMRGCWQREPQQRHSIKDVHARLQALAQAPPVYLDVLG

As for `Cn1ccc(-c2cc(C(=O)Nc3c(-c4ccccc4)ccc4c(C(C)(C)O)ncn34)c(F)cc2C(F)(F)F)n1`, half-maximal inhibition (IC50) required 50 nM.

Broadly, the IC50 is the concentration that gives 50% inhibition.
